One data set in a line: Oral PK. The class given is in vivo, female CD-1 mice. To be noted: for AUC(0-inf) / Cmax / Tmax / half-life: female, CD-1, mouse, mice, plasma. The protocol:
In vivo pharmacokinetic profiling was performed in female CD-1 mice, using 3 animals per time point. First, 30% w/v Kleptose as excipient was dissolved in water and vortexed gently for several min. Next, 30 mg of the test compound was dissolved into 0.6 mL of DMSO, for a concentration of 50 mg ml^-1, and 4.5 mL of the Kleptose solution was added to 0.5 mL of the test compound solution. A precipitate forms, which re-dissolves over 2-5 min, leaving a clear or slightly hazy solution with a final concentration of 5 mg ml^-1. The dosing solution is used as soon as practicable, vortexing immediately prior to use. This amount was sufficient formulation for 25 doses of 200 μL (20 g mouse). Compounds were administered orally at 50 mg kg^-1, with terminal blood (plasma) sampling at 10 min, 30 min, 1 h, 2.5 h, 5 h, 10 h, and 20 h.

A further data set relates to iCell cardiomyocytes. In words: Human cardiac muscle cell death, DRAQ7 uptake (high-content). To be noted: H2O2, micromolar concentrations. The format is cell-based. As to the method:
iCell cardiomyocytes were thawed, transferred to Plating Medium, counted using a Vi-CELL XR cell viability analyzer (Beckman Coulter), and seeded into 24-well plates for RNA collection (60,000 cells well^-1; Greiner) or μClear half-area 96-well plates for gene silencing (10,000 cells well^-1; Greiner). Plates were coated with 10 μg ml^-1 collagen type I (BD Biosciences). Cells were cultured in iCell Cardiomyocytes Plating Medium for 2 d and in Maintenance Medium thereafter. For compound dose-response comparisons, the cells were deposited in Plating Medium at 10,000 cells well^-1 in 0.1% (w/v) gelatin-coated 384-well white Greiner plates and were cultured as above for 8 d before treatment. […]
To measure loss of membrane integrity, iCell hiPSC-CMs were co-stained for 15 min at 37°C with 0.3 μM DRAQ7 (Biostatus), a cell-impermeable dye, and with 0.8 μM Hoescht 33342 (Molecular Probes), as the membrane-permeable dye. Dyes were removed and the nuclear fluorescence scored (typically, 15,000-20,000 cells well^-1) using a Cellomics ArrayScan VTI High Content Screening platform. The line harbors a cardiomyocyte-specific Myh6-driven reporter gene for monomeric red fluorescent protein (RFP), enabling cell death to be scored exclusively in the myocyte population. Successfully transduced cells were identified on the basis of TurboGFP fluorescence. […]

For another data set, the system named is NUAK. In words: HTRF Transcreener ADP kinase assay. The format is biochemical, human. In general terms: TR-FRET usually uses a lanthanide donor and a delayed reading to cut background.
In data set [1] the test system is S. typhimurium TA98 and TA100. Briefly: Ames genotoxicity reverse mutation assay. As to the method: Approximately 10^7 bacteria were exposed in triplicate to the test agent (six concentrations, 7.8-250 μg ml^-1), a vehicle control (vehicle) and a positive control for 90 min in low-histidine medium (sufficient for about 2 doublings.) The strains used were S. typhimurium TA98 (hisD3052, rfa, uvrB / pKM101; detects frameshift mutations) and TA100: hisG45, rfa, uvrB / pKM101; detects base-pair substitutions). The cultures were then diluted into indicator medium lacking histidine, dispensed into 384-well plates, and incubated for 48 hr at 37°C. The test was performed in the absence and presence of S9 metabolic activation, to identify pro-mutagens as well as directly acting mutagens. Only cells that underwent reversion grow, resulting in a color change. A two-fold increase over the vehicle control in the number of colonies indicates a positive response.

The test system of another data set is vCor.4U hiPSC-CMs. Briefly: Calcium transients (FLIPR Tetra, EarlyTox Cardiotoxicity dye). The format is cell-based, human. The protocol:
Calcium transients in hiPSC-CMs were assessed using FLIPR Tetra instrumentation and Early Tox Cardiotoxicity kits (Molecular Devices). vCor.4U cells were subjected to graded concentrations of menadione and the MAP4K4 inhibitors as described for the viability assays. Compound concentrations and time course are denoted in the figure and figure legend. Vehicle controls were used throughout. Cells were incubated for 2-3 hr at 37°C in 5% CO2, using 3 μL well^-1 of EarlyTox Cardiotoxicity Kit concentrate as the fluorescent calcium indicator dye. Plates were then removed from the incubator and allowed to reach room temperature. Intracellular calcium oscillations were monitored using a FLIPR Tetra system with excitation LED bank 470-495 nm and emission filter set 515-575 nm (Molecular Devices). Fluorescence intensity signals were acquired for 600 reads at 1.2 ms intervals. Beat frequency, median peak height, median peak width and total peak area were calculated and compared with the baseline control and with menadione alone. Protection of calcium cycling by DMX-4804 was confirmed in 3 independent experiments with overlapping conditions, and results are shown for a full dose-response study, analyzing 4 wells for each point.

The test system of another data set is VEGFR. In words: HTRF Transcreener ADP kinase assay. The class given is biochemical, human.
The test system of another data set is vCor.4U cells. In words: Hypoxia-reoxygenation assay (CellTox Green). The note with it: 3 cycles of 0.1% O2 over 8 h. The class given is cell-based, human. The protocol:
vCor.4U cells were plated at 10,000 well^-1 in Cor.4U medium using black, clear-bottom 96-well plates pre-treated with Geltrex (GIBCO). After incubation overnight at 37°C, the media was replaced with phenol red-free DMEM (GIBCO) supplemented with 2% FCS, 2 mM […], 1 mM pyruvate and 10 mM D-galactose. DMX-5804 prepared in DMSO and CellTox Green (Promega) were added and incubated for 1 hr at 37°C. A breathable seal (AeraSeal) was added to the plate before transferring to a CLARIOstar plate reader (BMG Labtech) equipped with an atmospheric control unit. Oxygen concentration ramping was executed as follows (% O2, hr), at 37°C and 5% CO2. Fluorescence measurements (λex/em 483-14/530-30) were taken using the multiple scan and direct bottom features (5 positions read), and matrix averaging of each position every 20 min. Data were blank corrected, averaged (n = 2) and subjected to exponential smoothing with a damping factor of 0.3.

Two compounds from publication PMC6458995, “MAP4K4 Inhibition Promotes Survival of Human Stem Cell-Derived Cardiomyocytes and Reduces Infarct Size In Vivo” (Cell Stem Cell, 2019) can be followed below.

As for `Oc1ncnc2c1c(-c1ccccc1)cn2-c1ccccc1` [F1386-0303, 5,7-diphenyl-7H-pyrrolo[2,3-d]pyrimidin-4-ol], in “Oral PK” (Oral PK (50 mg kg^−1)), the AUC(0-inf) was 2.16 µM·h, the highest level (Cmax) was 0.295 µM, the Tmax turned out to be 1 h and the half-life is 222 min. For the same compound, the “suppression of human cardiac muscle cell death (DRAQ7 uptake)” value in the data set on iCell cardiomyocytes is on record as “highly protective”.
With `COCCOc1ccc(-c2cn(-c3ccccc3)c3nc[nH]c(=O)c23)cc1` [DMX-5804, 5-[4-(2-methoxy-ethoxy)-phenyl]-7-phenyl-3,7-dihydro-pyrrolo[2,3-d]pyrimidin-4-one], the “Fold Selectivity” value in the data set on NUAK (NUAK versus MAP4K4) came out at 47. Also, the “DMX-5804 vs F1386-0303” value in the data set on NUAK (ratio of fold selectivity, NUAK) came out at 2.35. In data set [1], the “Ames test of mutagenic potential” value is on record as “no off-target effect”. The “improvement of free plasma concentration over the initial inhibitor” value in the data set “Oral PK” (50 mg kg^−1 oral dose, versus F1386-0303) is recorded as “more than 80 fold”. In addition, in “Oral PK” (Oral PK (50 mg kg^−1)), the AUC(0-inf) came out at 63.7 µM·h, the concentration peaked (Cmax) at 13.8 µM, the Tmax turned out to be 1 h and the half-life is 108 min. For the same compound, in the data set “Oral PK” (ratio, Oral PK (50 mg kg^−1)), the “AUCinf, DMX-5804 versus F1386-0303” value turned out to be 29.48; the “Cmax, DMX-5804 versus F1386-0303” value was 46.94; the “Tmax, DMX-5804 versus F1386-0303” value is 1.00; the “t1/2, DMX-5804 versus F1386-0303” value came to 0.49. For the same compound, the EC50 with vCor.4U hiPSC-CMs (Homo sapiens, calcium cycling, menadione, vCor.4U, read-out: concentration preserving ∼50% of peak area and peak height) fell in the range of 500 to 2000 nM. Besides, the “duration for which protection of calcium cycling was maintained” value in the data set on vCor.4U hiPSC-CMs (menadione present throughout) is “up to 96 h”. For the same compound, the “spontaneous calcium cycling after hypoxia-reoxygenation” value with vCor.4U hiPSC-CMs (vCor.4U, 8 hr after hypoxia-reoxygenation, 10 μM) is “protection was conferred”. Besides, the “effect on baseline calcium cycling” value with vCor.4U hiPSC-CMs (vCor.4U, no menadione) is listed as “no effect”. Further, the “Fold Selectivity” value in the data set with VEGFR (VEGFR versus MAP4K4) is on record as 675. Further, the pIC50 against VEGFR (VEGFR, HTRF Transcreener ADP assay) came to 5.72. In the data set with VEGFR (ratio of fold selectivity, VEGFR), the “DMX-5804 vs F1386-0303” value came to 12.27. In the data set with vCor.4U cells, the “protection of human cardiomyocyte survival, hypoxia-reoxygenation” value is recorded as “confirmed”.

In general, AUC(0-inf) refers to total exposure, with the tail of the curve extrapolated. High values mean high exposure, low ones low exposure. Usually Cmax stands for the highest concentration seen after dosing. As usually defined, the Tmax is the time at which the peak concentration occurs. What is called half-life is how long it takes for the measured level to halve. The low end stands for rapid decline, the high end for slow decline. The pIC50 is −log10 of the IC50, conventionally taken in molar units.
